Measured values as given in patent publication US7196229B2, “Benzoylcyclohexenone derivatives” (BASF Aktiengesellschaft, priority 2001, dated 2007).

How the values were obtained:
POLPE = test: greenhouse post-emergence herbicidal test; format: in vivo, ladys thumb; conditions: application rates of 0.125 or 0.0625 kg/ha
Excerpt: (§1) The seeds of the test plants were sown separately for each species. For the post-emergence treatment, the test plants were first grown to a height of from 3 to 15 cm, depending on the plant habit, and only then treated with the active compounds which had been suspended or emulsified in water. The test plants were for this purpose either sown directly and grown in the same containers, or they were first grown separately as seedlings and transplanted into the test containers a few days prior to treatment. The application rate for the post-emergence treatment was 0.125 and 0.0625 kg of a.s. (active substance)/ha. Depending on the species, the plants were kept at 10–25° C. or 20–35° C. The test period extended over 2 to 4 weeks. During this time, the plants were tended, and their response to the individual treatments was evaluated. The evaluation was carried out using a scale from 0 to 100. 100 means no emergence of the plants, or complete destruction of at least the aerial parts and 0 means no damage, or normal course of growth. The plants used in the greenhouse experiments were of the following species: [table]

ABUTH = test: greenhouse post-emergence herbicidal test; format: in vivo, velvetleaf; conditions: application rates of 0.125 or 0.0625 kg/ha
Excerpt: as §1

ECHCG = test: greenhouse post-emergence herbicidal test; format: in vivo, barnyard grass; conditions: application rates of 0.125 or 0.0625 kg/ha
Excerpt: as §1

CHEAL = test: greenhouse post-emergence herbicidal test; format: in vivo, lambsquarters; conditions: application rates of 0.125 or 0.0625 kg/ha
Excerpt: as §1

PHBPU = test: greenhouse post-emergence herbicidal test; format: in vivo, morning glory; conditions: application rates of 0.125 or 0.0625 kg/ha
Excerpt: as §1

SETFA = test: greenhouse post-emergence herbicidal test; format: in vivo, giant foxtail; conditions: application rates of 0.125 or 0.0625 kg/ha
Excerpt: as §1

AMARE = test: greenhouse post-emergence herbicidal test; format: in vivo, redroot pigweed; conditions: application rates of 0.125 or 0.0625 kg/ha
Excerpt: as §1

Compound: Cc1c(C(=O)C2=C(O)CCCC2=O)ccc(S(C)(=O)=O)c1S(C)(=O)=O [Compound 2.1, 2-[2-Methyl-3,4-di(methylsulfonyl)benzoyl]cyclohexane-1,3-dione]
- herbicidal post-emergence activity against POLPE (POLPE): very good
- herbicidal post-emergence activity against ABUTH (ABUTH): very good
- melting point: 301 to 302 °C
- herbicidal post-emergence activity against ECHCG (ECHCG): very good
- herbicidal post-emergence activity against CHEAL (CHEAL): very good

Compound: Cc1c(C(=O)C2=C(O)CC(C)CC2=O)ccc(S(C)(=O)=O)c1S(C)(=O)=O (centres unmarked) [Compound 2.3]
- herbicidal post-emergence activity against ABUTH (ABUTH): very good
- melting point: 235 to 239 °C
- herbicidal post-emergence activity against ECHCG (ECHCG): very good
- herbicidal post-emergence activity against PHBPU (PHBPU): very good
- herbicidal post-emergence activity against CHEAL (CHEAL): very good

Compound: Cc1c(C(=O)C2=C(O)CCC(C)(C)C2=O)ccc(S(C)(=O)=O)c1S(C)(=O)=O [Compound 2.4]
- herbicidal post-emergence activity against ECHCG (ECHCG): very good
- herbicidal post-emergence activity against PHBPU (PHBPU): very good
- herbicidal post-emergence activity against SETFA (SETFA): very good
- herbicidal post-emergence activity against CHEAL (CHEAL): very good

Compound: Cc1c(C(=O)C2=C(O)CC(C)(C)CC2=O)ccc(S(C)(=O)=O)c1S(C)(=O)=O [Compound 2.5]
- herbicidal post-emergence activity against AMARE (AMARE): very good
- herbicidal post-emergence activity against ECHCG (ECHCG): very good
- herbicidal post-emergence activity against SETFA (SETFA): very good
- herbicidal post-emergence activity against CHEAL (CHEAL): very good

Compound: Cc1c(C(=O)C2=C(O)CCCC2=O)ccc(Cl)c1S(C)(=O)=O [Compound 2.6]
- herbicidal post-emergence activity against POLPE (POLPE): very good
- herbicidal post-emergence activity against ABUTH (ABUTH): very good
- melting point: 137 to 140 °C
- herbicidal post-emergence activity against ECHCG (ECHCG): very good
- herbicidal post-emergence activity against SETFA (SETFA): very good

Compound: COc1ccc(C(=O)C2=C(O)CCCC2=O)c(C)c1S(C)(=O)=O [Compound 2.7]
- melting point: 121 to 129 °C

Compound: COc1ccc(C(=O)C2=C(O)CC(C)(C)CC2=O)c(C)c1S(C)(=O)=O [Compound 2.8]
- melting point: 163 to 165 °C

Compound: COc1ccc(C(=O)C2=C(O)CC(C)CC2=O)c(C)c1S(C)(=O)=O (centres unmarked) [Compound 2.9]
- melting point: 106 to 112 °C

Compound: Cc1c(C(=O)C2=C(O)CCCC2=O)ccc(OC(F)F)c1S(C)(=O)=O [Compound 2.10]
- melting point: 64 to 69 °C

Compound: Cc1c(C(=O)C2=C(n3cccn3)CCCC2=O)ccc(S(C)(=O)=O)c1S(C)(=O)=O [Compound 3.1]
- melting point: 275 to 277 °C

Compound: Cc1c(C(=O)C2=C(n3cccn3)CC(C)CC2=O)ccc(S(C)(=O)=O)c1S(C)(=O)=O (centres unmarked) [Compound 3.2]
- melting point: 278 to 283 °C
